Earlier results as cited in US20050163829A1, “Device and patch for controlled release of vanillin” (priority 2001, published 2005).

Key:
[1] = system: GABA receptor
[2] = system: glutamate receptors (KA)
[3] = system: nicotinic acetylcholine receptor (nACh)
[4] = system: glutamate receptors (NMDA)

Compound: COc1cc(C=O)ccc1O [Vanillin, 3 methoxy-4 hydroxybenzaldehyde]
- effect on the GABA receptor [1]: inhibited
- effect on the glutamate receptor KA [2]: inhibitory effect
- effect on the nicotinic acetylcholine receptor (nACh) [3]: inhibited
- effect on the glutamate receptor NMDA [4]: inhibitory effect

Compound: CCCCOC(C)=O [butyl acetate]
- effect on the GABA receptor [1]: stimulate

Compound: CC(C)=CCC/C(C)=C/CO [geraniol]
- effect on the GABA receptor [1]: stimulate
